Where two headings read alike, the source gives them in different places.
Tests used:
VCaP cells = experiment: Cellular growth inhibition assay for VCaP cells (CellTiter-Glo, 72 hours); type: cell-based, human
Summary of the method: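 Luminescent viability signal after 72 h of compound exposure gave GI50 values by four-parameter nonlinear regression. Compounds were added in 0.5% DMSO to cells plated 24 h earlier at 5000/well in DMEM containing 10% FBS.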

[1] = test system: T-Rex 293 cell line SC3 cells having increased expression of androgen receptor protein due to exposure to doxycycline; experiment: Cellular growth inhibition assay, T-Rex 293 SC3 cells with doxycycline (CellTiter-Glo, 72 hours); type: cell-based; conditions: T-Rex 293 SC3 cells with increased androgen receptor expression due to doxycycline (10 ng/mL)
Summary of the method: (§1)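 Growth inhibition is measured in an inducible AR-expressing T-Rex 293 clone, SC3, cultured with or without 10 ng/mL doxycycline in hormone-depleted medium. Test compounds are applied for 72 hours. GI50 values derive from CellTiter-Glo 2.0 signal fitted by four-parameter regression.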

[2] = test system: T-Rex 293 cell line SC3 cells lacking increased expression of androgen receptor protein; experiment: Cellular growth inhibition assay, T-Rex 293 SC3 cells without doxycycline (CellTiter-Glo, 72 hours); type: cell-based; conditions: T-Rex 293 cell line SC3 cells not exposed to doxycycline (lacking increased androgen receptor expression)
Summary of the method: as §1

| Structure (SMILES) | GI50 (VCaP cells) [nM] | GI50 (VCaP cells; Homo sapiens, VCaP, 72 h) [nM] | GI50 [1] [nM] | GI50 [2] [nM] | GI50 ([1]; 72 h) [nM] | GI50 ([2]; 72 h) [nM] |
| --- | --- | --- | --- | --- | --- | --- |
| Cc1sc2c(c1C)C(c1ccc(OCC3CCC4(C3)CN(c3ccc(C(=O)N[C@H]5CC[C@H](Oc6ccc(C#N)c(Cl)c6)CC5)nn3)CCO4)cc1)=N[C@@H](C)c1nnc(C)n1-2 (stereo partly drawn) [I-668] | < 500 | – | < 500 | < 500 | – | – |
| Cc1sc2c(c1C)C(c1ccc(CCCC3CCCN(c4ccc(C(=O)N[C@H]5CC[C@H](Oc6ccc(C#N)c(Cl)c6)CC5)nn4)CC3)nc1)=N[C@@H](C)c1nnc(C)n1-2 (stereo partly drawn) [I-671] | – | < 500 | – | – | < 500 | < 500 |
| Cc1sc2c(c1C)C(c1ccc(CCCC3CCCN(c4ccc(C(=O)N[C@H]5CC[C@H](Oc6ccc(C#N)c(Cl)c6)CC5)nn4)CC3)nc1)=N[C@@H](C)c1nnc(C)n1-2 (stereo partly drawn) [I-672] | < 500 | – | < 500 | < 500 | – | – |
| Cc1sc2c(c1C)C(c1ccc(C3CCC4(CCCN(c5ccc(C(=O)N[C@H]6CC[C@H](Oc7ccc(C#N)c(Cl)c7)CC6)nn5)C4)CC3)cc1)=N[C@@H](C)c1nnc(C)n1-2 (stereo partly drawn) [I-673] | – | < 500 | – | – | < 500 | > 3000 |
| Cc1sc2c(c1C)C(c1ccc(N3C[C@@]4(F)CN(c5ccc(C(=O)N[C@H]6CC[C@H](Oc7ccc(C#N)c(Cl)c7)CC6)nn5)C[C@@]4(F)C3)cc1)=N[C@@H](C)c1nnc(C)n1-2 [I-675] | – | < 500 | – | – | < 500 | < 500 |
| Cc1sc2c(c1C)C(c1ccc(N3C[C@@H]4CN(c5ccc(C(=O)N[C@H]6CC[C@H](Oc7ccc(C#N)c(Cl)c7)CC6)nn5)C[C@@H]4C3)cc1F)=N[C@@H](C)c1nnc(C)n1-2 [I-676] | – | < 500 | – | – | < 500 | < 500 |
| Cc1sc2c(c1C)C(c1ccc(C/C=C/C3CN(c4ccc(C(=O)N[C@H]5CC[C@H](Oc6ccc(C#N)c(Cl)c6)CC5)nn4)C3)cc1)=N[C@@H](Cc1ncco1)c1nnc(C)n1-2 [I-678] | – | > 3000 | – | – | < 500 | > 3000 |
| Cc1sc2c(c1C)C(c1ccccc1OCCC1CCN(c3ccc(C(=O)N[C@H]4CC[C@H](Oc5ccc(C#N)c(Cl)c5)CC4)nn3)CC1)=N[C@@H](C)c1nnc(C)n1-2 [I-689] | – | > 3000 | – | – | > 3000 | > 3000 |
| Cc1sc2c(c1C)C(c1ccc(C3CCC4(CCN(c5ccc(C(=O)N[C@H]6CC[C@H](Oc7ccc(C#N)c(Cl)c7)CC6)nn5)CC4)C3)cn1)=NC1(CC1)c1nnc(C)n1-2 (stereo partly drawn) [I-691] | – | < 500 | – | – | < 500 | > 3000 |
| Cc1sc2c(c1C)C(c1ccc(C3CCC4(CCCN(c5ccc(C(=O)N[C@H]6CC[C@H](Oc7ccc(C#N)c(Cl)c7)CC6)nn5)C4)CC3)cc1)=NC(C(F)(F)F)c1nnc(C)n1-2 (stereo partly drawn) [I-694] | – | > 3000 | – | – | > 3000 | > 3000 |
| Cc1sc2c(c1C)C(c1ccc(C3CCC4(CCCN(c5ccc(C(=O)N[C@H]6CC[C@H](Oc7ccc(C#N)c(Cl)c7)CC6)nn5)C4)CC3)cc1)=NC(C(F)(F)F)c1nnc(C)n1-2 (stereo partly drawn) [I-695] | > 3000 | – | > 3000 | > 3000 | – | – |
| Cc1sc2c(c1C)C(c1ccc(C3CCC4(CCCN(c5ccc(C(=O)N[C@H]6CC[C@H](Oc7ccc(C#N)c(Cl)c7)CC6)nn5)C4)CC3)cc1)=NC(C(F)(F)F)c1nnc(C)n1-2 (stereo partly drawn) [I-696] | > 3000 | – | > 3000 | > 3000 | – | – |
| Cc1sc2c(c1C)C(c1ccc(C3CCC4(CCCN(c5ccc(C(=O)N[C@H]6CC[C@H](Oc7ccc(C#N)c(Cl)c7)CC6)nn5)C4)CC3)cc1)=NC(C(F)(F)F)c1nnc(C)n1-2 (stereo partly drawn) [I-697] | > 3000 | – | > 3000 | > 3000 | – | – |
| Cc1sc2c(c1C)C(c1ccc(N3C4CCC3CC3(CCN(c5ccc(C(=O)N[C@H]6CC[C@H](Oc7ccc(C#N)c(Cl)c7)CC6)nn5)C3)C4)cc1)=N[C@@H](C)c1nnc(C)n1-2 (stereo partly drawn) [I-698] | – | < 500 | < 500 | < 500 | – | – |
| Cc1sc2c(c1C)C(c1ccc(CCCC3CCCN(c4ccc(C(=O)N[C@H]5CC[C@H](Oc6ccc(C#N)c(Cl)c6)CC5)nn4)CC3)cn1)=N[C@@H](C)c1nnc(C)n1-2 (stereo partly drawn) [I-699] | – | < 500 | – | > 3000 | < 500 | – |
| Cc1sc2c(c1C)C(c1ccc(CCCC3CCCN(c4ccc(C(=O)N[C@H]5CC[C@H](Oc6ccc(C#N)c(Cl)c6)CC5)nn4)CC3)cn1)=N[C@@H](C)c1nnc(C)n1-2 (stereo partly drawn) [I-700] | < 500 | – | < 500 | < 500 | – | – |

The next lines start with results.

| GI50 (VCaP cells) [nM] | GI50 (VCaP cells; Homo sapiens, VCaP, 72 h) [nM] | Structure (SMILES) | GI50 [1] [nM] | GI50 [2] [nM] | GI50 ([1]; 72 h) [nM] | GI50 ([2]; 72 h) [nM] |
| --- | --- | --- | --- | --- | --- | --- |
| – | < 500 | Cc1sc2c(c1C)C(c1ccc(CCCC3CCCN(c4ccc(C(=O)N[C@H]5CC[C@H](Oc6ccc(C#N)c(Cl)c6)CC5)nn4)CC3)cc1)=N[C@@H](C)c1nnc(C)n1-2 (stereo partly drawn) [I-669] | – | > 3000 | < 500 | – |
| < 500 | – | Cc1sc2c(c1C)C(c1ccc(CCCC3CCCN(c4ccc(C(=O)N[C@H]5CC[C@H](Oc6ccc(C#N)c(Cl)c6)CC5)nn4)CC3)cc1)=N[C@@H](C)c1nnc(C)n1-2 (stereo partly drawn) [I-670] | < 500 | < 500 | – | – |
| < 500 | – | Cc1sc2c(c1C)C(c1ccc(C3CCC4(CCCN(c5ccc(C(=O)N[C@H]6CC[C@H](Oc7ccc(C#N)c(Cl)c7)CC6)nn5)C4)CC3)cc1)=N[C@@H](C)c1nnc(C)n1-2 (stereo partly drawn) [I-674] | < 500 | > 3000 | – | – |
| – | < 500 | Cc1sc2c(c1C)C(c1cccc(OC3CCN(c4ccc(C(=O)N[C@H]5CC[C@H](Oc6ccc(C#N)c(Cl)c6)CC5)nn4)CC3)c1)=N[C@@H](C)c1nnc(C)n1-2 [I-680] | – | – | < 500 | > 3000 |
| – | < 500 | Cc1sc2c(c1C)C(c1cccc(OCC3CCN(c4ccc(C(=O)N[C@H]5CC[C@H](Oc6ccc(C#N)c(Cl)c6)CC5)nn4)CC3)c1)=N[C@@H](C)c1nnc(C)n1-2 [I-681] | – | – | > 3000 | > 3000 |
| – | 500 to 1500 | Cc1sc2c(c1C)C(c1cccc(N3CCC4(CCN(c5ccc(C(=O)N[C@H]6CC[C@H](Oc7ccc(C#N)c(Cl)c7)CC6)nn5)C4)C3)c1)=N[C@@H](C)c1nnc(C)n1-2 (stereo partly drawn) [I-682] | – | 500 to 1500 | < 500 | – |
| – | > 3000 | Cc1sc2c(c1C)C(c1cccc(N3CC4(CCN(c5ccc(C(=O)N[C@H]6CC[C@H](Oc7ccc(C#N)c(Cl)c7)CC6)nn5)CC4)C3)c1)=N[C@@H](C)c1nnc(C)n1-2 [I-683] | – | – | > 3000 | > 3000 |
| – | 500 to 1500 | Cc1sc2c(c1C)C(c1cccc(CC3CC4(CCN(c5ccc(C(=O)N[C@H]6CC[C@H](Oc7ccc(C#N)c(Cl)c7)CC6)nn5)CC4)C3)c1)=N[C@@H](C)c1nnc(C)n1-2 [I-684] | – | – | < 500 | > 3000 |
| – | < 500 | Cc1sc2c(c1C)C(c1cccc(N3CCC4(CC3)CCN(c3ccc(C(=O)N[C@H]5CC[C@H](Oc6ccc(C#N)c(Cl)c6)CC5)nn3)C4)c1)=N[C@@H](C)c1nnc(C)n1-2 [I-685] | – | – | < 500 | 500 to 1500 |
| – | < 500 | Cc1sc2c(c1C)C(c1cccc(OC3CC4(CCCN(c5ccc(C(=O)N[C@H]6CC[C@H](Oc7ccc(C#N)c(Cl)c7)CC6)nn5)C4)C3)c1)=N[C@@H](C)c1nnc(C)n1-2 (stereo partly drawn) [I-686] | – | > 3000 | < 500 | – |
| – | < 500 | Cc1sc2c(c1C)C(c1cccc(N3CCC4(CCCN(c5ccc(C(=O)N[C@H]6CC[C@H](Oc7ccc(C#N)c(Cl)c7)CC6)nn5)C4)CC3)c1)=N[C@@H](C)c1nnc(C)n1-2 [I-687] | – | – | < 500 | > 3000 |
| – | < 500 | Cc1sc2c(c1C)C(c1cccc(CN3CCC4(CC3)CCN(c3ccc(C(=O)N[C@H]5CC[C@H](Oc6ccc(C#N)c(Cl)c6)CC5)nn3)C4)c1)=N[C@@H](C)c1nnc(C)n1-2 [I-688] | – | – | < 500 | 500 to 1500 |
| – | < 500 | Cc1sc2c(c1C)C(c1ccccc1CC1CC3(CCN(c4ccc(C(=O)NC5CCC(Oc6ccc(C#N)c(Cl)c6)CC5)nn4)CC3)C1)=N[C@@H](C)c1nnc(C)n1-2 (stereo partly drawn) [I-690] | – | – | > 3000 | > 3000 |
| – | < 500 | COC[C@@H]1N=C(c2ccc(CC3CC4(CCN(c5ccc(C(=O)N[C@H]6CC[C@H](Oc7ccc(C#N)c(Cl)c7)CC6)nn5)CC4)C3)cc2)c2c(sc(C)c2C)-n2c(C)nnc21 [I-692] | – | – | < 500 | < 500 |
| – | < 500 | Cc1sc2c(c1C)C(c1ccc(OC3CCC4(CCN(c5ccc(C(=O)N[C@H]6CC[C@H](Oc7ccc(C#N)c(Cl)c7)CC6)nn5)C4)C3)cc1)=N[C@@H](C)c1nnc(C)n1-2 (stereo partly drawn) [I-701] | < 500 | < 500 | – | – |

Reference: US20260109707A1, “HETEROBIFUNCTIONAL COMPOUNDS AND METHODS OF TREATING DISEASE” (Halda Therapeutics OpCo. Inc., priority 2022, published 2026)
